≈ marks a conversion by molar mass, not a printed value.
Experiments:
[1] = test system: Pleurochrysis roscoffensis; experiment: Microalgal adhesion assay (chlorophyll a); type: cell-based; conditions: Chrysotila roscoffensis, 120 h, 5 days incubation, 10–0.01 μg/mL tested, read-out: MIC against the adhesion (A) of microalgae, P. roscoffensis
Excerpt: (§1) Cyprid larvae of B. improvisus were reared in a laboratory cultivating system at Tjärnö Marine Biological Laboratory, University of Gothenburg, Sweden, as previously described by Berntsson et al. ([2000]). Four pure, but non-axenic, marine microalgae (obtained from Algobank, Caen, France) and 10 marine bacterial strains were used (Table 1) as representative microfoulers. These strains represent fouling species encountered in both estuarine and marine environments (Moodie et al. [2017b]). The bacteria were grown at 26 °C in a marine medium, composed of 0.5% peptone (neutralized bacteriological peptone, Oxoid Ltd.) in filtered (Whatman 1001–270, pore size 11 μm) natural seawater. Microalgae were grown and maintained at 22 °C in F/2 medium.
(§2) Microplates containing the compounds in ranging concentrations (10–0.01 μg/mL) were prepared from MeOH stock solutions as previously described (Trepos et al. [2014]; Moodie et al. [2017a]). Microalgal stock solutions were prepared using the chlorophyll analysis methodology of Chambers et al. ([2011]). The pretreated microplate wells were treated with 100 μL of the algal stock solutions (0.1 mg chlorophyll a/mL). The plates were then incubated for 5 days at 20 °C under constant light exposure (140 μmol m^−2 s^−1). Both microalgal adhesion and growth inhibition were measured. Growth was determined by analysis of liberated chlorophyll a after centrifugation and methanol addition. Chlorophyll a was quantified fluorometrically. MIC value for algal growth was defined as the lowest concentration yielding a decrease in chlorophyll a content. Microalgal adhesion was determined in an analogous manner where the non-attached algal cells were removed prior to methanol addition (100 μL), releasing chlorophyll a from the remaining algal biofilms. The MIC for adhesion was defined as the lowest compound concentration causing a reduction in […]. Toxicity experiments were performed in an analogous manner to those described for the bacterial assays.

Cylindrotheca closterium [2] = experiment: Microalgal adhesion assay (chlorophyll a); type: cell-based; conditions: 120 h, 5 days incubation, 10–0.01 μg/mL tested, read-out: MIC against the adhesion (A) of microalgae, C. closterium
Excerpt: as §1, §2

Porphyridium purpureum [3] = experiment: Microalgal adhesion assay (chlorophyll a); type: cell-based; conditions: 120 h, 5 days incubation, 10–0.01 μg/mL tested, read-out: MIC against the adhesion (A) of microalgae, P. purpureum
Excerpt: as §1, §2

marine bacteria [4] = experiment: Bacterial adhesion assay, whole panel of ten strains; type: cell-based, 10 marine bacterial strains; conditions: tested up to 10 μg/mL, active = MIC of 10 μg/mL or below
Excerpt: as §1
(§3) Bacterial strain adhesion and growth were determined according to the methods of Thabard et al. ([2011]). Bacterial suspensions (100-μL aliquots, 2 × 10^8 colony forming units/mL) were aseptically added to the compound containing microplate wells (10–0.01 μg/mL), and the plates were incubated for 48 h at 26 °C. Media only was used as a blank. Bacterial growth was monitored spectroscopically at 630 nm. The minimal inhibitory concentration (MIC) for bacterial growth was defined as the lowest concentration which results in a decrease in OD. After 48-h incubation time, the bacterial adhesion assay was conducted by emptying the wells and rinsing with sterile seawater (100 μL) to remove non-attached cells, and air-drying at room temperature. The residual bacterial biofilm was stained with aqueous crystal violet (100 μL, 0.3% v/v) and the OD measured at 595 nm (Sonak and Bhosle [1995]). […] If inhibition was observed, toxicity tests were conducted. The well contents were transferred into a flask of fresh media, and growth was measured after 5 days of additional incubation. The mode of action was deemed biostatic if an increase in OD was measured at 595 nm (Moodie et al. [2017a]).

[5] = test system: Pseudoalteromonas elyakovii; experiment: Bacterial growth assay (OD 630 nm); type: cell-based; conditions: 48 h incubation, 10–0.01 μg/mL tested, read-out: MIC against the growth of marine bacteria, P.e.
Excerpt: as §1, §3

Shewanella putrefaciens = experiment: Bacterial growth assay (OD 630 nm); type: cell-based; conditions: 48 h incubation, 10–0.01 μg/mL tested, read-out: MIC against the growth of marine bacteria, S.p.
Excerpt: as §1, §3

Vibrio aestuarianus [6] = experiment: Bacterial growth assay (OD 630 nm); type: cell-based; conditions: 48 h incubation, 10–0.01 μg/mL tested, read-out: MIC against the growth of marine bacteria, V.a.
Excerpt: as §1, §3

Vibrio natriegens = experiment: Bacterial growth assay (OD 630 nm); type: cell-based; conditions: 48 h incubation, 10–0.01 μg/mL tested, read-out: MIC against the growth of marine bacteria, V.n.
Excerpt: as §1, §3

Vibrio harveyi [7] = experiment: Bacterial growth assay (OD 630 nm); type: cell-based; conditions: 48 h incubation, 10–0.01 μg/mL tested, read-out: MIC against the growth of marine bacteria, V.h.
Excerpt: as §1, §3

Roseobacter litoralis = experiment: Bacterial growth assay (OD 630 nm); type: cell-based; conditions: 48 h incubation, 10–0.01 μg/mL tested, read-out: MIC against the growth of marine bacteria, R.l.
Excerpt: as §1, §3

Vibrio proteolyticus [8] = experiment: Bacterial growth assay (OD 630 nm); type: cell-based; conditions: 48 h incubation, 10–0.01 μg/mL tested, read-out: MIC against the growth of marine bacteria, V.p.
Excerpt: as §1, §3

Vibrio carchariae [9] = experiment: Bacterial growth assay (OD 630 nm); type: cell-based; conditions: Vibrio harveyi, 48 h incubation, 10–0.01 μg/mL tested, read-out: MIC against the growth of marine bacteria, V.c.
Excerpt: as §1, §3

Halomonas aquamarina [10] = experiment: Bacterial growth assay (OD 630 nm); type: cell-based; conditions: Vreelandella aquamarina, 48 h incubation, 10–0.01 μg/mL tested, read-out: MIC against the growth of marine bacteria, H.a.
Excerpt: as §1, §3

[11] = test system: Balanus improvisus cyprid larvae; experiment: whole plant or invertebrate; type: in vivo; conditions: for IC50: Amphibalanus improvisus, 120 h, read-out: IC50 (cyprid settlement inhibition)
Outline: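 Freshly molted cyprids (18–22 per dish) exposed in filtered seawater to 0.1–10 μg/mL compound (0.1% DMSO controls) for 5 days at 20–25 °C. Settled, swimming and dead larvae counted by microscope; IC50 is the concentration preventing 50% settlement, n = 4, determined only for compounds inhibiting >50% at 5 μg/mL.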

[12] = test system: Pleurochrysis roscoffensis; experiment: Microalgal growth assay (chlorophyll a); type: cell-based; conditions: Chrysotila roscoffensis, 120 h, 5 days incubation, 10–0.01 μg/mL tested, read-out: MIC against the growth (G) of microalgae, P. roscoffensis
Excerpt: as §1, §2

Cylindrotheca closterium [13] = experiment: Microalgal growth assay (chlorophyll a); type: cell-based; conditions: 120 h, 5 days incubation, 10–0.01 μg/mL tested, read-out: MIC against the growth (G) of microalgae, C. closterium
Excerpt: as §1, §2

Halamphora coffeaeformis [14] = experiment: Microalgal growth assay (chlorophyll a); type: cell-based; conditions: Halamphora coffeiformis, 120 h, 5 days incubation, 10–0.01 μg/mL tested, read-out: MIC against the growth (G) of microalgae, H. coffeaformis
Excerpt: as §1, §2

Porphyridium purpureum [15] = experiment: Microalgal growth assay (chlorophyll a); type: cell-based; conditions: 120 h, 5 days incubation, 10–0.01 μg/mL tested, read-out: MIC against the growth (G) of microalgae, P. purpureum
Excerpt: as §1, §2

Vibrio aestuarianus [16] = experiment: Bacterial adhesion assay (crystal violet, OD 595 nm); type: cell-based; conditions: 48 h, read-out: MIC against the adhesion of marine bacteria, V.a.
Excerpt: as §1, §3

Vibrio harveyi [17] = experiment: as above; type: cell-based; conditions: 48 h, read-out: MIC against the adhesion of marine bacteria, V.h.
Excerpt: as §1, §3

Vibrio proteolyticus [18] = experiment: as above; type: cell-based; conditions: 48 h, read-out: MIC against the adhesion of marine bacteria, V.p.
Excerpt: as §1, §3

Vibrio carchariae [19] = experiment: as above; type: cell-based; conditions: Vibrio harveyi, 48 h, read-out: MIC against the adhesion of marine bacteria, V.c.
Excerpt: as §1, §3

Halomonas aquamarina [20] = experiment: as above; type: cell-based; conditions: Vreelandella aquamarina, 48 h incubation, 10–0.01 μg/mL tested, read-out: MIC against the adhesion of marine bacteria, H.a.
Excerpt: as §1, §3

Halamphora coffeaeformis [21] = experiment: Microalgal adhesion assay (chlorophyll a); type: cell-based; conditions: Halamphora coffeiformis, 120 h, 5 days incubation, 10–0.01 μg/mL tested, read-out: MIC against the adhesion (A) of microalgae, H. coffeaformis
Excerpt: as §1, §2

marine bacteria [22] = experiment: Bacterial growth assay, whole panel of ten strains; type: cell-based, 10 marine bacterial strains; conditions: tested up to 10 μg/mL
Excerpt: as §1, §3

microalgae = experiment: Microalgal adhesion and growth, whole panel of four species; type: cell-based, four marine microalgae; conditions: 10–0.01 μg/mL tested
Excerpt: as §1, §2

SMILES: COc1ccc(CC(=NO)c2ccc(O)c(OC)c2)cc1 [Compound 11, 1-(3-methoxy-4-hydroxyphenyl)-1-hydroxyimino-2-(4’-methoxyphenyl)-ethane]
- MIC [1]: > 10 µg/mL
- MIC (Cylindrotheca closterium [2]): > 10 µg/mL
- MIC (Porphyridium purpureum [3]): > 10 µg/mL
- MIC / activity against the adhesion of all bacteria tested (marine bacteria [4]): ^aCompounds 7, 8, 10, 11, and 12 were inactive against the adhesion of all bacteria tested up to 10 μg/mL
- MIC [5]: > 10 µg/mL
- MIC (Shewanella putrefaciens): > 10 µg/mL
- MIC (Vibrio aestuarianus [6]): > 10 µg/mL
- MIC (Vibrio natriegens): > 10 µg/mL
- MIC (Vibrio harveyi [7]): > 10 µg/mL
- MIC (Roseobacter litoralis): > 10 µg/mL
- MIC (Vibrio proteolyticus [8]): > 10 µg/mL
- MIC (Vibrio carchariae [9]): > 10 µg/mL
- MIC (Halomonas aquamarina [10]): 10 µg/mL (≈ 34.8 µM)
- IC50 [11]: > 5 µg/mL
- inhibition of cyprid settlement in the initial screen ([11]; B. improvisus, at 5.0 μg/mL): inactive
- Toxicity (%) (dead cyprids) ([11]; Balanus improvisus, in vivo, 5 days, 5 μg/mL): 5.3%
- MIC [12]: 10 µg/mL (≈ 34.8 µM)
- MIC (Cylindrotheca closterium [13]): 10 µg/mL (≈ 34.8 µM)
- MIC (Halamphora coffeaeformis [14]): > 10 µg/mL
- MIC (Porphyridium purpureum [15]): 10 µg/mL (≈ 34.8 µM)

SMILES: COc1cc(OC)cc(C(Cc2ccccc2)=NO)c1 [Compound 15, 1-(3,5-Dimethoxyphenyl)-1-Hydroxyimino-2-Phenylethane]
- MIC (Vibrio aestuarianus [16]): 10 µg/mL (≈ 36.9 µM)
- MIC (Vibrio harveyi [17]): 10 µg/mL (≈ 36.9 µM)
- MIC (Vibrio proteolyticus [18]): > 10 µg/mL
- MIC (Vibrio carchariae [19]): 10 µg/mL (≈ 36.9 µM)
- MIC (Halomonas aquamarina [20]): 10 µg/mL (≈ 36.9 µM)
- MIC (Halamphora coffeaeformis [21]): 10 µg/mL (≈ 36.9 µM)
- MIC / activity against the growth of all bacteria tested (marine bacteria [22]): ^aCompound 15 was inactive against the growth of all bacteria tested up to 10 μg/mL
- MIC / activity against the adhesion of all bacteria tested (marine bacteria [4]): displayed inhibitory activities
- MIC / activity against the attachment and growth of microalgae (microalgae): not significantly active
- IC50 [11]: 0.75 µg/mL (≈ 2.76 µM)
- MIC [12]: > 10 µg/mL
- MIC (Cylindrotheca closterium [13]): > 10 µg/mL
- MIC (Halamphora coffeaeformis [14]): > 10 µg/mL
- MIC (Porphyridium purpureum [15]): > 10 µg/mL
